Measured values reported in the NIST ThermoML archive (doi:10.1016/j.jct.2010.08.021).
± gives the expanded uncertainty stated by the source.

Assay: mn = molality of the nth substance listed, in mol/kg
Details: 101 kPa, Liquid; for speed of sound: Sing-around technique in a fixed-path interferometer; for mass density: Vibrating tube method

NCC(=O)O [2-aminoacetic acid] + O
Details	mass density, 308.15 K [kg/m3]	mass density, 313.15 K [kg/m3]	speed of sound, 308.15 K [m/s]	speed of sound, 313.15 K [m/s]
m1 = 0.0303	994.983 ± 0.11	993.159 ± 0.11	–	1530.6 ± 1.2
m1 = 0.0407	–	993.481 ± 0.11	–	1531.1 ± 1.2
m1 = 0.0487	995.552 ± 0.11	993.725 ± 0.11	–	1531.5 ± 1.2
m1 = 0.0549	–	993.917 ± 0.11	–	1531.8 ± 1.2
m1 = 0.0649	–	994.224 ± 0.11	–	1532.3 ± 1.2
m1 = 0.066	–	994.257 ± 0.11	–	1532.3 ± 1.2
m1 = 0.0799	–	994.689 ± 0.11	–	1533 ± 1.2
m1 = 0.0959	997.02 ± 0.11	995.187 ± 0.11	–	1533.8 ± 1.2
m1 = 0.1125	997.536 ± 0.11	–	–	1534.6 ± 1.2
m1 = 0.1349	998.23 ± 0.11	–	–	1535.6 ± 1.2
m1 = 0.1608	999.021 ± 0.11	–	1528 ± 1.2	1536.9 ± 1.2
m1 = 0.1908	999.936 ± 0.11	998.083 ± 0.11	1529.5 ± 1.2	1538.3 ± 1.2
m1 = 0.2165	1000.72 ± 0.11	–	1530.7 ± 1.2	1539.5 ± 1.2
m1 = 0.2303	1001.14 ± 0.11	999.28 ± 0.11	1531.4 ± 1.2	1540.2 ± 1.2
m1 = 0.2506	1001.76 ± 0.11	999.893 ± 0.11	1532.4 ± 1.2	1541.2 ± 1.2
m1 = 0.2735	1002.45 ± 0.11	1000.58 ± 0.11	1533.5 ± 1.2	1542.3 ± 1.2
